# Data taken from publication PMC9386913 (Arthritis Research & Therapy, 2022).
# Marks after values point to notes of the source that are not given here.
# Assay: Phase I multiple ascending-dose study: safety and tolerability (treatment-emergent adverse events)
# Type: in vivo, human (healthy volunteers)
# Method: A single-center, randomized, double-blind, placebo-controlled phase I study (NCT03554993) with a MAD component was performed in the UK between May 2018 and July 2019. Thirty-seven healthy volunteers of any race, ethnicity, or sex were enrolled. The inclusion criteria were 18 to 55 years of age inclusive, body mass index 18 to 33 kg/m^2, and physical examination by the investigator without clinically significant findings. Subjects were excluded if any clinically significant medical history, laboratory abnormality, psychiatric illness, or other condition existed that would place the subject at unacceptable risk by participating in the study. Pregnancy prevention guidance was provided as per Clinical Trial Facilitation Group recommendations. Subjects were randomly assigned to daily oral doses of CC-99677 or placebo. Subjects were dosed daily for 14 days. […] Both the investigator and subjects were blinded to the treatment arm. Safety assessments, including physical examinations, clinical laboratory tests, and collection of adverse events (AEs) were performed and graded using MedDRA version 22.0 and the US Food and Drug Administration (FDA) Toxicity Grading Scale for Healthy Adult and Adolescent Volunteers. The primary outcome of this trial was the safety and tolerability of multiple daily doses of CC-99677.
smiles,measurement,setting,value
CCOCc1cnc(Cl)nc1Oc1ccc2c(ccc3sc4c(c32)NC[C@@H](C)NC4=O)n1 [CC-99677],TEAE: Investigations,"60 mg daily, 14 days (n = 6)",0 n (%)
same,TEAE: Muscle strain,"60 mg daily, 14 days (n = 6)",0 n (%)
same,TEAE: Musculoskeletal and connective tissue disorders,"60 mg daily, 14 days (n = 6)",0 n (%)
same,TEAE: Musculoskeletal pain,"60 mg daily, 14 days (n = 6)",0 n (%)
same,TEAE: Myalgia,"60 mg daily, 14 days (n = 6)",0 n (%)
same,TEAE: Nasopharyngitis,"60 mg daily, 14 days (n = 6)",0 n (%)
same,TEAE: Nausea,"60 mg daily, 14 days (n = 6)",0 n (%)
same,TEAE: Nervous system disorders,"60 mg daily, 14 days (n = 6)",1 (16.7) n (%)
same,TEAE: Oropharyngeal pain,"60 mg daily, 14 days (n = 6)",0 n (%)
same,TEAE: Psychiatric disorders,"60 mg daily, 14 days (n = 6)",0 n (%)
same,TEAE: Rash pustular,"60 mg daily, 14 days (n = 6)",0 n (%)
same,TEAE: Rectal hemorrhage,"60 mg daily, 14 days (n = 6)",0 n (%)
same,TEAE: Reproductive system and breast disorders,"60 mg daily, 14 days (n = 6)",0 n (%)
same,"TEAE: Respiratory, thoracic, and mediastinal disorders","60 mg daily, 14 days (n = 6)",0 n (%)
same,TEAE: Sensation of foreign body,"60 mg daily, 14 days (n = 6)",0 n (%)
same,TEAE: Vascular disorders,"60 mg daily, 14 days (n = 6)",0 n (%)
same,TEAE: Vessel puncture site pain,"60 mg daily, 14 days (n = 6)",0 n (%)
same,TEAE: Vessel puncture site reaction,"60 mg daily, 14 days (n = 6)",0 n (%)
same,Subjects with ≥ 1 treatment-emergent AE,"120 mg daily, 14 days (n = 6)",3 (50.0) n (%)
same,TEAE: Abdominal pain,"120 mg daily, 14 days (n = 6)",1 (16.7) n (%)
same,TEAE: Alanine aminotransferase increased,"120 mg daily, 14 days (n = 6)",1 (16.7) n (%)
same,TEAE: Aspartate aminotransferase increased,"120 mg daily, 14 days (n = 6)",0 n (%)
same,TEAE: Back pain,"120 mg daily, 14 days (n = 6)",0 n (%)
same,TEAE: Blood creatine phosphokinase increased,"120 mg daily, 14 days (n = 6)",0 n (%)
same,TEAE: Catheter site related reaction,"120 mg daily, 14 days (n = 6)",0 n (%)
same,TEAE: Chapped lips,"120 mg daily, 14 days (n = 6)",0 n (%)
same,TEAE: Constipation,"120 mg daily, 14 days (n = 6)",0 n (%)
same,TEAE: Diarrhea,"120 mg daily, 14 days (n = 6)",1 (16.7) n (%)
same,TEAE: Dizziness,"120 mg daily, 14 days (n = 6)",0 n (%)
same,TEAE: Dysmenorrhea,"120 mg daily, 14 days (n = 6)",0 n (%)
same,TEAE: Dyspepsia,"120 mg daily, 14 days (n = 6)",0 n (%)
same,TEAE: Ear and labyrinth disorders,"120 mg daily, 14 days (n = 6)",0 n (%)
same,TEAE: Ear pain,"120 mg daily, 14 days (n = 6)",0 n (%)
same,TEAE: Flushing,"120 mg daily, 14 days (n = 6)",0 n (%)
same,TEAE: Gastrointestinal disorders,"120 mg daily, 14 days (n = 6)",1 (16.7) n (%)
same,TEAE: General disorders and administration site conditions,"120 mg daily, 14 days (n = 6)",0 n (%)
same,TEAE: Headache,"120 mg daily, 14 days (n = 6)",1 (16.7) n (%)
same,TEAE: Hot flush,"120 mg daily, 14 days (n = 6)",0 n (%)
same,TEAE: Infections and infestations,"120 mg daily, 14 days (n = 6)",0 n (%)
same,"TEAE: Injury, poisoning, and procedural complications","120 mg daily, 14 days (n = 6)",0 n (%)
same,TEAE: Insomnia,"120 mg daily, 14 days (n = 6)",0 n (%)
same,TEAE: Investigations,"120 mg daily, 14 days (n = 6)",1 (16.7) n (%)
same,TEAE: Muscle strain,"120 mg daily, 14 days (n = 6)",0 n (%)
same,TEAE: Musculoskeletal and connective tissue disorders,"120 mg daily, 14 days (n = 6)",1 (16.7) n (%)
same,TEAE: Musculoskeletal pain,"120 mg daily, 14 days (n = 6)",1 (16.7) n (%)
same,TEAE: Myalgia,"120 mg daily, 14 days (n = 6)",0 n (%)
same,TEAE: Nasopharyngitis,"120 mg daily, 14 days (n = 6)",0 n (%)
same,TEAE: Nausea,"120 mg daily, 14 days (n = 6)",0 n (%)
same,TEAE: Nervous system disorders,"120 mg daily, 14 days (n = 6)",1 (16.7) n (%)
same,TEAE: Oropharyngeal pain,"120 mg daily, 14 days (n = 6)",1 (16.7) n (%)
same,TEAE: Psychiatric disorders,"120 mg daily, 14 days (n = 6)",0 n (%)
same,TEAE: Rash pustular,"120 mg daily, 14 days (n = 6)",0 n (%)
same,TEAE: Rectal hemorrhage,"120 mg daily, 14 days (n = 6)",0 n (%)
same,TEAE: Reproductive system and breast disorders,"120 mg daily, 14 days (n = 6)",0 n (%)
same,"TEAE: Respiratory, thoracic, and mediastinal disorders","120 mg daily, 14 days (n = 6)",1 (16.7) n (%)
same,TEAE: Sensation of foreign body,"120 mg daily, 14 days (n = 6)",0 n (%)
same,TEAE: Vascular disorders,"120 mg daily, 14 days (n = 6)",0 n (%)
same,TEAE: Vessel puncture site pain,"120 mg daily, 14 days (n = 6)",0 n (%)
same,TEAE: Vessel puncture site reaction,"120 mg daily, 14 days (n = 6)",0 n (%)
same,Subjects with ≥ 1 treatment-emergent AE,"150 mg daily, 14 days (n = 5)",2 (40.0) n (%)
same,TEAE: Abdominal pain,"150 mg daily, 14 days (n = 5)",0 n (%)
same,TEAE: Alanine aminotransferase increased,"150 mg daily, 14 days (n = 5)",0 n (%)
same,TEAE: Back pain,"150 mg daily, 14 days (n = 5)",0 n (%)
same,TEAE: Catheter site related reaction,"150 mg daily, 14 days (n = 5)",0 n (%)
same,TEAE: Chapped lips,"150 mg daily, 14 days (n = 5)",0 n (%)
same,TEAE: Constipation,"150 mg daily, 14 days (n = 5)",0 n (%)
same,TEAE: Diarrhea,"150 mg daily, 14 days (n = 5)",0 n (%)
same,TEAE: Dizziness,"150 mg daily, 14 days (n = 5)",0 n (%)
same,TEAE: Dysmenorrhea,"150 mg daily, 14 days (n = 5)",1 (20.0) n (%)
same,TEAE: Dyspepsia,"150 mg daily, 14 days (n = 5)",0 n (%)
same,TEAE: Ear and labyrinth disorders,"150 mg daily, 14 days (n = 5)",0 n (%)
same,TEAE: Ear pain,"150 mg daily, 14 days (n = 5)",0 n (%)
same,TEAE: Flushing,"150 mg daily, 14 days (n = 5)",1 (20.0) n (%)
same,TEAE: Gastrointestinal disorders,"150 mg daily, 14 days (n = 5)",0 n (%)
same,TEAE: General disorders and administration site conditions,"150 mg daily, 14 days (n = 5)",0 n (%)
same,TEAE: Headache,"150 mg daily, 14 days (n = 5)",0 n (%)
same,TEAE: Hot flush,"150 mg daily, 14 days (n = 5)",0 n (%)
same,TEAE: Infections and infestations,"150 mg daily, 14 days (n = 5)",0 n (%)
same,"TEAE: Injury, poisoning, and procedural complications","150 mg daily, 14 days (n = 5)",0 n (%)
same,TEAE: Insomnia,"150 mg daily, 14 days (n = 5)",0 n (%)
same,TEAE: Investigations,"150 mg daily, 14 days (n = 5)",1 (20.0) n (%)
same,TEAE: Muscle strain,"150 mg daily, 14 days (n = 5)",0 n (%)
same,TEAE: Musculoskeletal and connective tissue disorders,"150 mg daily, 14 days (n = 5)",0 n (%)
same,TEAE: Musculoskeletal pain,"150 mg daily, 14 days (n = 5)",0 n (%)
same,TEAE: Myalgia,"150 mg daily, 14 days (n = 5)",0 n (%)
same,TEAE: Nasopharyngitis,"150 mg daily, 14 days (n = 5)",0 n (%)
same,TEAE: Nausea,"150 mg daily, 14 days (n = 5)",0 n (%)
same,TEAE: Nervous system disorders,"150 mg daily, 14 days (n = 5)",0 n (%)
same,TEAE: Oropharyngeal pain,"150 mg daily, 14 days (n = 5)",0 n (%)
same,TEAE: Psychiatric disorders,"150 mg daily, 14 days (n = 5)",0 n (%)
same,TEAE: Rash pustular,"150 mg daily, 14 days (n = 5)",0 n (%)
same,TEAE: Rectal hemorrhage,"150 mg daily, 14 days (n = 5)",0 n (%)
same,TEAE: Reproductive system and breast disorders,"150 mg daily, 14 days (n = 5)",1 (20.0) n (%)
same,"TEAE: Respiratory, thoracic, and mediastinal disorders","150 mg daily, 14 days (n = 5)",0 n (%)
same,TEAE: Sensation of foreign body,"150 mg daily, 14 days (n = 5)",0 n (%)
same,TEAE: Vascular disorders,"150 mg daily, 14 days (n = 5)",1 (20.0) n (%)
same,TEAE: Vessel puncture site pain,"150 mg daily, 14 days (n = 5)",0 n (%)
same,TEAE: Vessel puncture site reaction,"150 mg daily, 14 days (n = 5)",0 n (%)
same,TEAE: Blood creatine phosphokinase increased,"150 mg daily, 14 days (n = 5), occurred 14 days after the end of dosing following greater-than-usual physical activity, same individual as AST increase",1 (20.0)^a n (%)
same,TEAE: Aspartate aminotransferase increased,"150 mg daily, 14 days (n = 5), occurred 14 days after the end of dosing following greater-than-usual physical activity, same individual as CPK increase",1 (20.0)^a n (%)
same,Dose dependency of the incidence of TEAEs,10 to 150 mg,no apparent CC-99677 dose dependency
same,Serious treatment-emergent adverse events,"14 consecutive days of dosing, 5 dose-level cohorts 10 to 150 mg",no serious treatment-emergent adverse events (TEAEs) were observed
same,AEs not suspected to be related to CC-99677 (blinded investigator assessment),MAD study,69%
same,Discontinuation because of safety reasons,MAD study,No subject discontinued
same,Severity grade of TEAEs (FDA toxicity grading scale),"MAD study, 10 to 150 mg daily, 14 days",mild (grade 1)
same,Subjects with TEAEs,"all subjects receiving CC-99677 (n = 28), placebo 77.8%",46.4%
